Assay results: patent US20240270762A1, “PENICILLIN-BINDING PROTEIN INHIBITORS” (priority 2021, published 2024)
pIC50: −log10 of the molar value. Converted amounts (≈) assume the structure as drawn.

Tests used:
[1] = target: T1, PBP3 from Acinetobacter baumannii (ATCC 19606) (Acinetobacter baumannii, UniProt A0ABX6CK25); assay: Bocillin-FL fluorescence polarization competition binding, A. baumannii PBP3; details: fluorescence polarization competition binding assay using Bocillin-FL; read-out: A. baumannii PBP3 Potency
T1 sequence (A0ABX6CK25 64-610): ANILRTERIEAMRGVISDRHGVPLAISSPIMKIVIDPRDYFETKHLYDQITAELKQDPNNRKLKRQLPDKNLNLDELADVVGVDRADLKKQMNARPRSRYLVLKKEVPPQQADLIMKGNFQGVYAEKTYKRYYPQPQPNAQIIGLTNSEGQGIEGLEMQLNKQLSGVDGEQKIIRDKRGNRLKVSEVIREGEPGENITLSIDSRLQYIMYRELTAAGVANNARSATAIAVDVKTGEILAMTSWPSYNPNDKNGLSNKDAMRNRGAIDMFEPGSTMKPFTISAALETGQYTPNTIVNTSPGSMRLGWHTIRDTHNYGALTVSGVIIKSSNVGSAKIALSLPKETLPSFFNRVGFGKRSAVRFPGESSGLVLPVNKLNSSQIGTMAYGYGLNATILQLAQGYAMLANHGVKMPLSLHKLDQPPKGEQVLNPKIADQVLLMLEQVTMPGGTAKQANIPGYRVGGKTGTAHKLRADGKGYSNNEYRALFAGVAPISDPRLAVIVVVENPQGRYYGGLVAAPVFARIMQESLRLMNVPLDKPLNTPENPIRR
Method in brief: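 Purified PBPs pre-incubated with inhibitor (E. coli PBP3 1.5 μM, 30 min; P. aeruginosa PBP3 0.75 μM, A. baumannii PBP1a 1 μM and PBP3 0.2 μM, 15 min), then Bocillin-FL 0.1 μM (0.05 μM for PBP1a) added; FP read up to 60 min. EC50 = concentration halving bound Bocillin-FL.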

N. gonorrhoeae CDC-0197 = assay: Liquid broth MIC in Fastidious broth; details: Neisseria gonorrhoeae, CDC0197, read-out: Minimum Inhibitory Concentration (MIC), N. gonorrhoeae CDC-0197
A. baumannii CDC-0045 = assay: microbe, parasite or virus in culture; type: cell-based; details: Acinetobacter baumannii, CDC0045, read-out: MIC, A. baumannii CDC-0045
[2] = test system: B. thailandensis ATCC 700388; assay: microbe, parasite or virus in culture; type: cell-based; details: Burkholderia thailandensis, ATCC700388, read-out: Minimum inhibitory concentration (MIC), B. thailandensis ATCC 700388
P. aeruginosa ATCC 35151 = assay: microbe, parasite or virus in culture; type: cell-based; details: Pseudomonas aeruginosa, ATCC35151, read-out: Minimum inhibitory concentration, P. aeruginosa ATCC 35151
N. gonorrhoeae WHO L = assay: Liquid broth MIC in Fastidious broth; details: Neisseria gonorrhoeae, read-out: Minimum Inhibitory Concentration (MIC), N. gonorrhoeae WHO L
N. gonorrhoeae WHO Q = assay: Liquid broth MIC in Fastidious broth; details: Neisseria gonorrhoeae, read-out: Minimum Inhibitory Concentration (MIC), N. gonorrhoeae WHO Q
A. baumannii 1258916 = assay: microbe, parasite or virus in culture; type: cell-based, Acinetobacter baumannii; details: Acinetobacter baumannii, 1258916, read-out: MIC, A. baumannii 1258916
N. gonorrhoeae MS11 = assay: Liquid broth MIC in Fastidious broth; details: Neisseria gonorrhoeae, MS11, read-out: Minimum Inhibitory Concentration (MIC), N. gonorrhoeae MS11
P. aeruginosa CDC-0095 = assay: microbe, parasite or virus in culture; type: cell-based; details: Pseudomonas aeruginosa, CDC0095, read-out: Minimum inhibitory concentration, P. aeruginosa CDC-0095

Compound	pIC50 [1]	MIC (N. gonorrhoeae CDC-0197) [µg/mL]	MIC (A. baumannii CDC-0045) [µg/mL]	MIC [2] [µg/mL]	MIC (P. aeruginosa ATCC 35151) [µg/mL]	MIC (N. gonorrhoeae WHO L) [µg/mL]	MIC (N. gonorrhoeae WHO Q) [µg/mL]	MIC (A. baumannii 1258916) [µg/mL]	MIC (N. gonorrhoeae MS11) [µg/mL]	MIC (P. aeruginosa CDC-0095) [µg/mL]
O=C(CN1CCN(C(=O)N[C@@H](C(=O)N[C@H]2Cc3ccc(F)c(C(=O)O)c3OB2O)c2cc(F)c(O)c(O)c2Cl)C(=O)C1=O)NCc1ccncc1 [Example 239, (R)-3-((R)-2-(2-chloro-5-fluoro-3,4-dihydroxyphenyl)-2-(2,3-dioxo-4-(2-oxo-2-((pyridin-4-ylmethyl)amino)ethyl)piperazine-1-carboxamido)acetamido)-7-fluoro-2-hydroxy-3,4-dihydro-2H-benzo[e][1,2]oxaborinine-8-carboxylic acid]	> 5.00	16 to 32 (≈ 21.9 to 43.8 µM)	< 1	8 to 16 (≈ 10.9 to 21.9 µM)	< 1	> 64	> 64	< 1	16 to 32 (≈ 21.9 to 43.8 µM)	2 to 4 (≈ 2.74 to 5.47 µM)
O=C(CN1CCN(C(=O)NC(C(=O)N[C@H]2Cc3ccc(F)c(C(=O)O)c3OB2O)c2cc(F)c(O)c(O)c2Cl)C(=O)C1=O)NCc1cccnc1 (stereo partly drawn) [Example 240, (3R)-3-(2-(2-chloro-5-fluoro-3,4-dihydroxyphenyl)-2-(2,3-dioxo-4-(2-oxo-2-((pyridin-3-ylmethyl)amino)ethyl)piperazine-1-carboxamido)acetamido)-7-fluoro-2-hydroxy-3,4-dihydro-2H-benzo[e][1,2]oxaborinine-8-carboxylic acid]	> 5.00	16 to 32 (≈ 21.9 to 43.8 µM)	2 to 4 (≈ 2.74 to 5.47 µM)	2 to 4 (≈ 2.74 to 5.47 µM)	< 1	> 64	16 to 32 (≈ 21.9 to 43.8 µM)	< 1	16 to 32 (≈ 21.9 to 43.8 µM)	2 to 4 (≈ 2.74 to 5.47 µM)
O=C(CN1CCN(C(=O)N[C@@H](C(=O)N[C@H]2Cc3ccc(F)c(C(=O)O)c3OB2O)c2cc(F)c(O)c(O)c2Cl)C(=O)C1=O)NCc1nccs1 [Example 241, (R)-3-((R)-2-(2-chloro-5-fluoro-3,4-dihydroxyphenyl)-2-(2,3-dioxo-4-(2-oxo-2-((thiazol-2-ylmethyl)amino)ethyl)piperazine-1-carboxamido)acetamido)-7-fluoro-2-hydroxy-3,4-dihydro-2H-benzo[e][1,2]oxaborinine-8-carboxylic acid]	> 5.00	16 to 32 (≈ 21.7 to 43.4 µM)	2 to 4 (≈ 2.71 to 5.43 µM)	2 to 4 (≈ 2.71 to 5.43 µM)	< 1	> 64	16 to 32 (≈ 21.7 to 43.4 µM)	< 1	16 to 32 (≈ 21.7 to 43.4 µM)	2 to 4 (≈ 2.71 to 5.43 µM)
O=C(NCCN1CCN(C(=O)NC(C(=O)N[C@H]2Cc3ccc(F)c(C(=O)O)c3OB2O)c2cc(F)c(O)c(O)c2Cl)C1=O)c1ccccc1 (stereo partly drawn) [Example 242, (3R)-3-(2-(3-(2-benzamidoethyl)-2-oxoimidazolidine-1-carboxamido)-2-(2-chloro-5-fluoro-3,4-dihydroxyphenyl)acetamido)-7-fluoro-2-hydroxy-3,4-dihydro-2H-benzo[e][1,2]oxaborinine-8-carboxylic acid]	> 5.00	> 64	< 1	2 to 4 (≈ 2.85 to 5.7 µM)	< 1	> 64	> 64	< 1	16 to 32 (≈ 22.8 to 45.6 µM)	2 to 4 (≈ 2.85 to 5.7 µM)
O=C(NCCN1CCN(C(=O)NC(C(=O)N[C@H]2Cc3ccc(F)c(C(=O)O)c3OB2O)c2cc(F)c(O)c(O)c2Cl)C1=O)c1ccc(O)cc1 (stereo partly drawn) [Example 243, (3R)-3-(2-(2-chloro-5-fluoro-3,4-dihydroxyphenyl)-2-(3-(2-(4-hydroxybenzamido)ethyl)-2-oxoimidazolidine-1-carboxamido)acetamido)-7-fluoro-2-hydroxy-3,4-dihydro-2H-benzo[e][1,2]oxaborinine-8-carboxylic acid]	> 5.00	16 to 32 (≈ 22.3 to 44.6 µM)	< 1	2 to 4 (≈ 2.79 to 5.57 µM)	< 1	> 64	> 64	< 1	16 to 32 (≈ 22.3 to 44.6 µM)	8 to 16 (≈ 11.1 to 22.3 µM)
